For three compounds, IC50 and Activity results are on record in ChEMBL document CHEMBL1146443, “New indole derivatives with free radical scavenging activity from Agrocybe cylindracea” (J Nat Prod, 1997).

In brackets after ≈: the same amount, converted by molar mass. Activity calls are given as the source filed them. No cut-off for these calls is given here.

The subject of experiment [1] is Liver microsomes. As to the kind of experiment: Inhibition of lipid peroxidation in rat liver microsome. It is filed as functional.
Experiment [2] relates to Liver microsomes. As to the kind of experiment: Inhibition of lipid peroxidation in rat liver microsome at 50 ug/mL. The class given is functional. A general note: Liver microsomes are vesicles of endoplasmic reticulum, rich in cytochrome P450 enzymes.

The term IC50 denotes the point on the concentration scale where inhibition reaches its midpoint. In experiment [1], `NC(=O)Cc1c[nH]c2cc(O)ccc12` came in with an IC50 of 3.9 µg/mL (≈ 20.5 µM).
`O=C(O)Cc1c[nH]c2ccccc12`: the outcome in experiment [2] was inactive.
As for `O=Cc1c[nH]c2cc(O)ccc12`, in experiment [1], the IC50 came to 4.1 µg/mL (≈ 25.4 µM).
